Test results from US9828299B2, “Methods for rendering micellar coordination complexes safe for the treatment of plants and formulations for same” (Innovation Hammer LLC, priority 2012, dated 2017).

What was measured:
[1] = Solubility of ketoester coordination complex
Description: One suitable coordination complex may be made, for example, by dissolving 10 mg ferric nitrate nonahydrate, in 1 ml water with stirring at room temperature until the solution is clear with all crystals dissolved; to the aqueous iron solution, 1 ml MAA is added with rapid stirring for 5-50 minutes or more to allow formation of the coordination complex. […] Other compositions include the following: micellar ketoester-zinc-ketoester, Zn-MNP; and micellar ketoester-copper-ketoester, Cu-MNP.
A process for novel synthesis of an MNP from iron salt is as follows: The aqueous saturated solution of 1 g ferric chloride hexahydrate is dissolved in 10 ml EAA with rapid stirring for 1 minute or more to the formation of the coordination complex.

[2] = Critical micelle concentration; type: physicochemical
Text: Ketoesters also are a source of metabolizable micellar nanoparticles for transepidermal transport; i.e., at or above the CMC of a ketoester. For example, when applied to a leaf at or above the CMC 6.48 mol % of the β-ketoester, EAA is an effective wetter and spreader of water-based solutions. This is particularly true of EAA when applied at CMC on leaves of green plants. Furthermore, by bringing the ketoester to CMC, other compounds in solution synergistically rise to CMC. For example, in the embodiments disclosed herein, physical characteristics of the CMC of the ketoester, MAA, are applied to create zinc depots.

Petunia = assay: Effective foliar application dose of safened ketoester formulations (synergism EAA/cosolvent); type: in vivo
[3] = system: waxy foliar surfaces of oleander leaves; assay: Effective spreading of water droplets on waxy foliar surfaces, determined visually; conditions: oleander leaf, visual determination
Text: Experimental biology investigations show an exemplary synergism of EAA to random block copolymer (RBC) using the formulations of the invention to visually determine the effect of concentration of the compounds on the effective spreading of water droplets on waxy foliar surfaces of oleander leaves. The following is an exemplary effective spreading of water droplet on a waxy leaf based on EAA synergist: • Leaf Plant Type Effective water droplet spreading • RBC EAA RBC+EAA • Oleander 0.6% 1% 0.3%+0.86%

SMILES	solubility in IPA ([1]; IPA)	solubility in water ([1]; water)	CMC (critical micelle concentration) [2]	effective foliar application dose (Petunia)	Effective water droplet spreading (concentration) [3]
CCOC(=O)CC(C)=O.[Fe+3] [Fe-EAA, ferric(III)-ethyl acetoacetate]	soluble	insoluble			
CCOC(=O)CC(C)=O [EAA, ethyl acetoacetate]			6.48 mol %	100 mM	1%
